# Active and inactive are the calls of the source. No cut-off for these calls is given here.
# Legend:
# [1] = AUC (0 to infinity) in ICR mouse at 1 mg/kg, iv measured upto 24 hrs by LC-MS/MS analysis; format: ADME, organism-based; set-up: time < 24 hrs, dose 1 mg/kg, route iv; conditions: in vivo
# [2] = AUC (0 to t) in ICR mouse at 10 mg/kg, po measured upto 24 hrs by LC-MS/MS analysis; format: ADME, organism-based; set-up: dose 10 mg/kg, time < 24 hrs, route po; conditions: in vivo
# A2780 [3] = experiment: Antitumor activity against human A2780 cells xenografted in BALB/c nude mouse model assessed as induction of tumor shrinkage 100 mg/kg by H and E staining based immunohistochemical analysis; format: functional, organism-based
# MDA-MB-468 = experiment: Antiproliferative activity against human MDA-MB-468 cells incubated for 168 hrs by SRB method; format: functional, cell-based; conditions: MDA-MB-468, 168 h
# [4] = Toxicity in Balb/c mouse assessed as effect on lung at 100 mg/kg by H and E staining based analysis; format: organism-based; conditions: in vivo
# A2780 [5] = experiment: Effect on SDHB level in human A2780 cells at upto 500 nM by Western blot analysis; format: functional, cell-based
# A2780 [6] = experiment: Antitumor activity against human A2780 cells xenografted in BALB/c nude mouse model assessed as reduction in COX1 level at 100 mg/kg, po by immunoblotting analysis; format: functional, organism-based
# [7] = Acute toxicity in Balb/c mouse assessed as effect on liver 100 mg/kg measured after 27 days by H and E staining based analysis; format: organism-based; conditions: in vivo, 648 h, time 27 day
# A2780 [8] = experiment: Antitumor activity against human A2780 cells xenografted in BALB/c nude mouse model assessed as reduction in mitochondrial DNA transcript level at 50 to 100 mg/kg, po administered daily; format: functional, organism-based; conditions: dose 50-100 mg/kg
# A2780 [9] = experiment: Induction of apoptosis in human A2780 cells assessed as late apoptotic cells at 50 nM incubated for 96 hrs by Annexin-V/FITC and PI staining based flow cytometry analysis (reference value: 3.79%); format: functional
# A2780 [10] = experiment: Induction of cell cycle arrest in human A2780 cells assessed as accumulation of cells at S phase at 100 nM measured after 96 hrs by PI staining based flow cytometry analysis (reference value: 14.7%); format: functional
# [11] = Apparent permeability across apical to basolateral side in human Caco-2 cells at 3 uM incubated for 2 hrs by LC-MS/MS analysis; format: ADME, cell-based
# A2780 [12] = experiment: Antitumor activity against human A2780 cells xenografted in BALB/c nude mouse model assessed as effect on heart 100 mg/kg, po measured after 27 days; format: functional, organism-based; conditions: time 27.0 day
# A2780 [13] = experiment: Inhibition of MT-ND3 expression in human A2780 cells at 100 nM incubated for 12 hrs by RNA sequencing analysis; format: functional, cell-based
# Cytochrome P450 2C9 = Cytochrome P450 2C9 (Homo sapiens, UniProt P11712); experiment: Inhibition of CYP2C9 (unknown origin) using diclofenac as substrate in presence of NADPH by LC/MS/MS analysis; format: ADME
# Cytochrome P450 2C9, sequence (P11712 whole entry): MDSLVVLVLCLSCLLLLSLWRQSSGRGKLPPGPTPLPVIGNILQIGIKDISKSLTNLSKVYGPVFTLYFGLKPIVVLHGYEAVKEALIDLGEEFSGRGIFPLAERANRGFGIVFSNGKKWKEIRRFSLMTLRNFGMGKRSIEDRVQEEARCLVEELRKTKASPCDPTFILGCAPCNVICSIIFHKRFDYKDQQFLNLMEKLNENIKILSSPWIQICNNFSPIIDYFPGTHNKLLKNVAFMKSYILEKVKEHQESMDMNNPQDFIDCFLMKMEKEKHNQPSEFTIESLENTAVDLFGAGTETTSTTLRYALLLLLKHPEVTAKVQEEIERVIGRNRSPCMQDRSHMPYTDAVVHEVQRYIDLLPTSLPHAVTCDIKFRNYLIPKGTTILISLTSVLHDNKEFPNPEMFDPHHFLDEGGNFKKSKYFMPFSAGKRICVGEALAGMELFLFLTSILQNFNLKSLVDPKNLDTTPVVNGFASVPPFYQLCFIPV
# [14] = Volume of distribution at steady state in ICR mouse at 1 mg/kg, iv measured upto 24 hrs by LC-MS/MS analysis; format: ADME, organism-based; conditions: in vivo, read-out: Vdss
# [15] = Toxicity in Balb/c mouse assessed as effect on spleen at 100 mg/kg by H and E staining based analysis; format: organism-based; conditions: in vivo
# DLD-1 = experiment: Antiproliferative activity against human DLD-1 cells incubated for 168 hrs by SRB method; format: functional, cell-based; conditions: DLD-1, 168 h
# A2780 [16] = experiment: Inhibition of colony formation in human A2780 cells assessed as decrease in size of colonies at 10 nM incubated for 14 days by crystal violet staining based analysis; format: functional, cell-based; conditions: time 14.0 day
# [17] = Toxicity in Balb/c mouse assessed as effect on kidney at 100 mg/kg by H and E staining based analysis; format: organism-based; conditions: in vivo
# A2780 [18] = experiment: Effect on 28S mRNA level in human A2780 cells by RT-qPCR analysis; format: functional, cell-based
# NCI-H3122 = experiment: Antiproliferative activity against human NCI-H3122 cells incubated for 168 hrs by SRB method; format: functional, cell-based; conditions: NCI-H3122, 168 h
# A2780 [19] = experiment: Inhibition of MT-ND5 expression in human A2780 cells at 100 nM incubated for 12 hrs by RNA sequencing analysis; format: functional, cell-based
# A2780 [20] = experiment: Inhibition of mitochondrial transcript in human A2780 cells assessed as decrease in COX1 expression by RT-qPCR analysis; format: functional, cell-based
# A2780 [21] = experiment: Inhibition of colony formation in human A2780 cells at upto 500 nM incubated for 14 days by crystal violet staining based analysis; format: functional, cell-based; conditions: time 14.0 day
# A2780 [22] = experiment: Induction of apoptosis in human A2780 cells assessed as increase in cleaved PARP cleavage level at upto 500 nM by immunoblot analysis; format: functional, cell-based
# A2780 [23] = experiment: Inhibition of MT-ND4 expression in human A2780 cells at 100 nM incubated for 12 hrs by RNA sequencing analysis; format: functional, cell-based
# A2780 [24] = experiment: Induction of apoptosis in human A2780 cells assessed as viable cells at 50 nM incubated for 96 hrs by Annexin-V/FITC and PI staining based flow cytometry analysis (reference value: 89.2%); format: functional; conditions: read-out: Activity
# [25] = Toxicity in Balb/c mouse assessed as effect on liver at 100 mg/kg by H and E staining based analysis; format: organism-based; conditions: in vivo
# A2780 [26] = experiment: Antitumor activity against human A2780 cells xenografted in BALB/c nude mouse model assessed as reduction in NDUFB level at 100 mg/kg, po by immunoblotting analysis; format: functional, organism-based
# A2780 [27] = experiment: Induction of apoptosis in human A2780 cells assessed as necrotic cells at 100 nM incubated for 96 hrs by Annexin-V/FITC and PI staining based flow cytometry analysis (reference value: 2.07%); format: functional
# A2780 [28] = experiment: Induction of apoptosis in human A2780 cells assessed as late apoptotic cells at 100 nM incubated for 96 hrs by Annexin-V/FITC and PI staining based flow cytometry analysis (reference value: 3.79%); format: functional
# A2780 [29] = experiment: Inhibition of MT-ATP6 expression in human A2780 cells at 100 nM incubated for 12 hrs by RNA sequencing analysis; format: functional, cell-based
# A2780 [30] = experiment: Antitumor activity against human A2780 cells xenografted in BALB/c nude mouse model assessed as reduction in […] level at 100 mg/kg, po by immunoblotting analysis; format: functional, organism-based
# A2780 [31] = experiment: Antitumor activity against human A2780 cells xenografted in BALB/c nude mouse model assessed as reduction in beta-actin level at 100 mg/kg, po by immunoblotting analysis; format: functional, organism-based
# A2780 [32] = experiment: Antitumor activity against human A2780 cells xenografted in BALB/c nude mouse model assessed as effect on liver 100 mg/kg, po measured after 27 days; format: functional, organism-based; conditions: time 27.0 day
# A2780 [33] = experiment: Inhibition of MT-ND6 expression in human A2780 cells at 100 nM incubated for 12 hrs by RNA sequencing analysis; format: functional, cell-based
# A2780 [34] = experiment: Induction of apoptosis in human A2780 cells assessed as necrotic cells at 50 nM incubated for 96 hrs by Annexin-V/FITC and PI staining based flow cytometry analysis (reference value: 2.07%); format: functional
# IMR-90 = experiment: Antiproliferative activity against human IMR-90 cells incubated for 168 hrs by SRB method; format: functional, cell-based; conditions: IMR-90, 168 h
# A2780 [35] = experiment: Induction of intracellular ROS generation in human A2780 cells at 0 to 5 uM by DCFH-DA staining based microscopic analysis; format: functional, cell-based; conditions: dose 0-5 µM
structure (smiles),measurement,setting,value
Cc1ccc(-c2cc(=O)oc3cc(O[C@H](C)C(=O)N4CC5CCC(C4)N5C)ccc23)c(C)c1,AUC(0-inf),[1],439 ng·h/mL
same,AUC(0-t) at 24 h,[2],1830 ng·h/mL
same,Activity,A2780 [3],Active
same,IC50,MDA-MB-468,0.132 µM
same,Activity,[4],Non-Toxic
same,Activity,A2780 [5],inactive
same,Activity,A2780 [6],Active
same,Activity,[7],Non-Toxic
same,Activity,A2780 [8],Active
same,Activity,A2780 [9],3.17%
same,Activity,A2780 [10],9.15%
same,"Papp A→B at 2 h, 3 µM",[11],6.93 ×10⁻⁶ cm/s
same,Activity,A2780 [12],inactive
same,inhibition,A2780 [13],Active
same,IC50,Cytochrome P450 2C9,34.7 µM
same,Vd,[14],6.4 L/kg
same,Activity,[15],Non-Toxic
same,IC50,DLD-1,0.069 µM
same,inhibition,A2780 [16],Active
same,Activity,[17],Non-Toxic
same,Activity,A2780 [18],inactive
same,IC50,NCI-H3122,> 10 µM
same,inhibition,A2780 [19],Active
same,inhibition,A2780 [20],Active
same,inhibition,A2780 [21],Active
same,Activity,A2780 [22],inactive
same,inhibition,A2780 [23],Active
same,viability at 0.05 µM,A2780 [24],92.3%
same,Activity,[25],Non-Toxic
same,Activity,A2780 [26],Active
same,Activity,A2780 [27],4.46%
same,Activity,A2780 [28],5.11%
same,inhibition,A2780 [29],Active
same,Activity,A2780 [30],Active
same,Activity,A2780 [31],Active
same,Activity,A2780 [32],inactive
same,inhibition,A2780 [33],Active
same,Activity,A2780 [34],2.29%
same,IC50,IMR-90,> 50 µM
same,Activity,A2780 [35],inactive
